US20140162875A1, “N-Thio-Anthranilamide Compounds and Their Use as Pesticides” (BASF SE, priority 2011, published 2014)

How the values were obtained:
Format in all cases: in vivo
[1] = test system: vetch aphid (Megoura viciae); assay: Vetch aphid broad bean leaf disk microtiter test; details: foliar, 120 h, adult aphids on broad bean leaf disks, 5 days, read-out: mortality in comparison with untreated controls
Experimental: For evaluating control of vetch aphid (Megoura viciae) through contact or systemic means the test unit consisted of 24-well-microtiter plates containing broad bean leaf disks.
The compounds were formulated using a solution containing 75% v/v water and 25% v/v DMSO. Different concentrations of formulated compounds were sprayed onto the leaf disks at 2.5 μl, using a custom built micro atomizer, at two replications.
After application, the leaf disks were air-dried and 5-8 adult aphids placed on the leaf disks inside the microtiter plate wells. The aphids were then allowed to suck on the treated leaf disks and incubated at about 23±1° C. and about 50±5% relative humidity for 5 days. Aphid mortality and fecundity was then visually assessed.

[2] = test system: Southern Armyworm (Spodoptera Eridania); assay: Southern armyworm lima bean plant spray test; details: 96 h, larvae on sprayed lima bean plants, 4 days after treatment, read-out: mortality in comparison with untreated controls
Experimental: (§1) The active compounds were formulated in cyclohexanone as a 10,000 ppm solution supplied in tubes. The tubes were inserted into an automated electrostatic sprayer equipped with an atomizing nozzle and they served as stock solutions for which lower dilutions were made in 50% acetone:50% water (v/v). A nonionic surfactant (Kinetic®) was included in the solution at a volume of 0.01% (v/v).
(§2) Lima bean plants (variety Sieva) were grown 2 plants to a pot and selected for treatment at the 1st true leaf stage. Test solutions were sprayed onto the foliage by an automated electrostatic plant sprayer equipped with an atomizing spray nozzle. The plants were dried in the sprayer fume hood and then removed from the sprayer. Each pot was placed into perforated plastic bags with a zip closure. About 10 to 11 armyworm larvae were placed into the bag and the bags zipped closed. Test plants were maintained in a growth room at about 25° C. and about 20-40% relative humidity for 4 days, avoiding direct exposure to fluorescent light (24 hour photoperiod) to prevent trapping of heat inside the bags. Mortality and reduced feeding were assessed 4 days after treatment, compared to untreated control plants.

[3] = test system: boll weevil (Anthonomus grandis); assay: Boll weevil microtiter plate insect diet test; details: 120 h, egg and larval mortality after 5 days, read-out: mortality in comparison with untreated controls
Experimental: For evaluating control of boll weevil (Anthonomus grandis) the test unit consisted of 96-well-microtiter plates containing an insect diet and 5-10 A. grandis eggs.
(§3) The compounds were formulated using a solution containing 75% v/v water and 25% v/v DMSO. Different concentrations of formulated compounds were sprayed onto the insect diet at 5 μl, using a custom built micro atomizer, at two replications.
After application, microtiter plates were incubated at about 25±1° C. and about 75±5% relative humidity for 5 days. Egg and larval mortality was then visually assessed.

[4] = test system: Orchid Thrips (Dichromothrips Corbetti); assay: Orchid thrips floral-immersion test; details: adult thrips on dipped orchid flowers, 72 hours after treatment, read-out: mortality in comparison with untreated controls
Experimental: Dichromothrips corbetti adults used for bioassay are obtained from a colony maintained continuously under laboratory conditions. For testing purposes, the test compound was diluted in a 1:1 mixture of acetone:water (vol:vol), plus 0.01% vol/vol Alkamuls® EL 620 surfactant.
Thrips potency of each compound was evaluated by using a floral-immersion technique. Plastic petri dishes were used as test arenas. All petals of individual, intact orchid flowers are dipped into treatment solution and allowed to dry. Treated flowers were placed into individual petri dishes along with −about 20 adult thrips. The petri dishes were then covered with lids. All test arenas were held under continuous light and a temperature of about 28° C. for duration of the assay. After 3 days, the numbers of live thrips were counted on each flower, and along inner walls of each petri dish. The percent mortality was recorded 72 hours after treatment.

[5] = test system: Tobacco Budworm (Heliothis Virescens); assay: Tobacco budworm cotton plant spray test; details: 96 h, larvae on sprayed cotton plants, 4 days after treatment, read-out: mortality in comparison with untreated controls
Experimental: as §1
as §2, with “Cotton” for “Lima bean”, “plants” for “plants (variety Sieva)”, “cotyledon” for “1st true leaf”, “budworm” for “armyworm”

[6] = test system: Cowpea Aphid (Aphis Craccivora); assay: Cowpea aphid spray test on potted cowpea plants; details: sprayed cowpea plants, assessed after 72 hours, read-out: mortality in comparison with untreated controls
Experimental: (§4) The active compound was dissolved at the desired concentration in a mixture of 1:1 (vol:vol) distilled water:acetone. Surfactant (Alkamuls® EL 620) is added at a rate of 0.1% (vol/vol). The test solution was prepared at the day of use.
Potted cowpea plants were colonized with approximately 50-100 aphids of various stages by manually transferring a leaf tissue cut from infested plant 24 hours before application. Plants were sprayed after the pest population has been recorded. Treated plants were maintained on light carts at about 28° C. Percent mortality was assessed after 72 hours.

[7] = test system: Colorado Potato Beetle (Leptinotarsa Decemlineata); assay: Colorado potato beetle eggplant foliage spray test; details: foliar, 96 h, beetle larvae on sprayed eggplant foliage, 4 days after treatment, read-out: mortality in comparison with untreated controls
Experimental: as §1
Eggplants were grown 2 plants to a pot and were selected for treatment at the 1st true leaf stage. Test solutions were sprayed onto the foliage by an automated electrostatic plant sprayer equipped with an atomizing spray nozzle. The plants were dried in the sprayer fume hood and then removed from the sprayer. The treated foliage was then cut and removed from the pot and placed in a Petri dish lined with moistened filter paper. Five beetle larvae were introduced into each Petri dish and the dish was covered by a Petri dish lid. Petri dishes were maintained in a growth room at about 25° C. and about 20-40% relative humidity for 4 days, avoiding direct exposure to fluorescent light (24 hour photoperiod) to prevent trapping of heat inside the dishes. Mortality and reduced feeding were assessed 4 days after treatment, compared to untreated control plants.

[8] = test system: Mediterranean fruitfly (Ceratitis capitata); assay: Mediterranean fruitfly microtiter plate insect diet test; details: 120 h, egg and larval mortality after 5 days, read-out: mortality in comparison with untreated controls
Experimental: For evaluating control of Mediterranean fruitfly (Ceratitis capitata) the test unit consisted of microtiter plates containing an insect diet and 50-80 C. capitata eggs.
as §3
After application, microtiter plates were incubated at about 28±1° C. and about 80±5% relative humidity for 5 days. Egg and larval mortality was then visually assessed.

[9] = test system: Diamond Back Moth (Plutella Xylostella); assay: Diamond back moth cabbage leaf dip test; details: foliar, dipped cabbage leaves, 3rd instar larvae, 72 hours after treatment, read-out: mortality in comparison with untreated controls
Experimental: as §4
Leaves of cabbage were dipped in test solution and air-dried. Treated leaves were placed in petri dishes lined with moist filter paper and inoculated with ten 3rd instar larvae. Mortality was recorded 72 hours after treatment. Feeding damages were also recorded using a scale of 0-100%.

[10] = test system: Silverleaf Whitefly (Bemisia Argentifolii); assay: Silverleaf whitefly cotton plant spray test; details: 300 ppm; whitefly adults on sprayed cotton plants; 3 days after treatment
Excerpt: as §1
Cotton plants at the cotyledon stage (one plant per pot) were sprayed by an automated electrostatic plant sprayer equipped with an atomizing spray nozzle. The plants were dried in the sprayer fume hood and then removed from the sprayer. Each pot was placed into a plastic cup and about 10 to 12 whitefly adults (approximately 3-5 days old) were introduced. The insects were collected using an aspirator and a nontoxic Tygon® tubing connected to a barrier pipette tip. The tip, containing the collected insects, was then gently inserted into the soil containing the treated plant, allowing insects to crawl out of the tip to reach the foliage for feeding. Cups were covered with a reusable screened lid. Test plants were maintained in a growth room at about 25° C. and about 20-40% relative humidity for 3 days, avoiding direct exposure to fluorescent light (24 hour photoperiod) to prevent trapping of heat inside the cup. Mortality was assessed 3 days after treatment, compared to untreated control plants.

Row | SMILES | mortality at 2500 ppm [1] [%] | mortality at 300 ppm [2] [%] | mortality at 2500 ppm [3] [%] | mortality at 300 ppm [4] [%] | mortality at 2500 ppm [5] [%] | mortality at 300 ppm [6] [%] | mortality at 300 ppm [7] [%] | mortality at 2500 ppm [8] [%] | mortality at 300 ppm [9] [%] | mortality in comparison with untreated controls [10]
1 | Cc1cc(Cl)cc(C(=O)/N=S2/CCSC2)c1NC(=O)c1cnn(CC(F)(F)F)c1-c1ncccc1Cl (stereo not shown) [Compound 1-1, N-[4-chloro-2-((Z)-1,3-dithiolan-1-ylidenecarbamoyl)-6-methyl-phenyl]-5-(3-chloro-2-pyridyl)-1-(2,2,2-trifluoroethyl)pyrazole-4-carboxamide] | ≥ 75 | ≥ 75 | ≥ 75 | ≥ 75 | ≥ 75 | ≥ 75 | ≥ 75 | ≥ 75 | ≥ 75 | 
2 | Cc1cc(Cl)cc(C(=O)N=S(C(C)C)C(C)C)c1NC(=O)c1cnn(CC(F)(F)F)c1-c1ncccc1Cl [Compound 1-2] |  |  |  |  |  |  |  |  |  | at least 75%
